Residues, ends and D or L forms follow the SMILES beside them. *: point of attachment. Boc = CC(C)(C)OC(=O)*; OBn = c1ccc(CO*)cc1; Bn = c1ccc(C*)cc1
| melting point [°C] | SMILES |
| --- | --- |
| 118 to 119 | COc1cc(Nc2nccc(-c3ccc(N4CCNC(CO)C4)nc3)n2)cc(OC)c1OC (centres undefined) |
| 96 to 97 | COC(=O)c1ccccc1OCCCOc1cc2c(cc1O)CCO2 |
| 284 to 287 | Cn1c2cc(C#N)ccc2c2nc3ccccc3nc21 |
| 171 to 172 | COc1cc(COc2nn(-c3ccccc3)cc2C=O)ccc1OCc1sc(-c2ccccc2)nc1C |
| 166 to 168 | COc1ccc2oc(=O)c(S(=O)(=O)Nc3ccc(Br)cc3)cc2c1 |
| 147 to 148 | COc1cc(OC)nc(Sc2cnn(C)c2NS(=O)(=O)CC#N)n1 |
| 132 to 134 | COc1ccc(C(=O)Cc2ccc3ccccc3c2)cc1 |
| 248 to 251 | COC(=O)Cn1c2c(c3ccccc3c1=O)C(=O)c1ccccc1-2 |
| > 300 | O=Cc1c(NC(Cc2ccccc2)C(=O)O)ncnc1-c1ccc(OCc2ccccc2)cc1 (centres undefined) |
| 97 to 99 | CC(C)(CCl)C(=O)C(Oc1ccc(-c2ccc(Cl)cc2)cc1)n1ccnc1 (centres undefined) |
| 168 to 172 | COc1ccc(OC)c(S(=O)(=O)NC(=O)C(C)Oc2cc(-n3nc(C)n(C(F)F)c3=O)c(F)cc2Cl)c1 (centres undefined) |
| 180 to 181 | COC(=O)c1ccc(-c2nc(-c3cc(C(F)(F)F)cc(C(F)(F)F)c3)co2)cc1 |
| 154 to 155 | COCCNC(=O)c1ccnc(-c2ccc3c(c2)C(c2ccc(Cl)cc2Cl)CC3)c1 (centres undefined) |
| 127 to 128 | CC(C)(C)OC(=O)N[C@H](Cc1cccc(OC(F)(F)C(F)F)c1)[C@@H](O)c1csc(-c2ccccc2)n1 (racemic) |
| 299 to 302 | CC(C)COc1ccc(-c2nc3c(C(=O)O)cccc3[nH]2)cc1C#N |
| 250 | Cc1ccnc(Nc2nc(-c3c[nH]nc3C(O)c3ccccc3)cs2)n1 (centres undefined) |
| 209 | COc1ccc(Nc2nc(N)nc3[nH]c4ccccc4c23)cc1 |
| 237 to 238 | CC(=O)Nc1nc(CCc2ccc(NC(=O)OC(C)(C)C)cc2)c(C(=O)O)s1 |
| 159 to 160 | Nc1ccccc1NC(=O)c1ccc(CNC(=O)OCc2cccnc2)cc1 |
| 128 to 130 | CCCC(=O)c1ccc(C(=O)O)cn1 |
| 94 to 95 | CCOC(=O)C1=C(C=O)NC(C(F)(F)F)=C(C(=O)OCC)C1c1cccc2nonc12 (centres undefined) |
| 142 to 148 | COc1cc(C(=O)O)nc(-c2ccc(N(C)C)cc2)c1 |

| melting point [°C] | SMILES |
| --- | --- |
| 167 to 168 | O=C(O)Cc1nn(Cc2ccc(Br)cc2F)c2ccccc12 |
| 194 to 197 | Cc1c(C(=O)NCc2ccc3c(Br)c(O)ccc3c2)oc2ccccc12 |
| 174 | CCCNC(=O)COC1c2ccccc2C(=O)N1c1ccc2ccc(OC)nc2n1 (centres undefined) |
| 230 to 233 | CCOC(=O)c1ccc(Nc2nc(=O)c3cccnc3s2)cc1 |
| 111 to 115 | CC(C)C[C@@H](C=NNC(N)=O)NC(=O)[C@H](Cc1c[nH]cn1)NC(=O)C(Cc1ccccc1)Cc1ccccc1 |
| 69 | COC(=O)Cc1cccc(NC(=O)NCC(=O)N2[C@@H](c3ccccc3)SC[C@H]2C(=O)OC(C)(C)C)c1 |
| 154 | COc1cc2c(cc1Nc1ncc(Cl)c(Nc3ccccc3S(=O)(=O)N(C)C)n1)N(CC(=O)N(C)C)C(=O)CN(CC(=O)N(C)C)C2 |
| 184 to 187 | CCCc1c(C(=O)O)c(=O)cc(-c2ccc(Cl)cc2)n1C |
| 191 to 192 | COc1ccnc(CCc2nc3cc(-c4ccc(S(=O)(=O)N(C)c5ccc(Cl)cc5)cc4)cnc3[nH]2)c1 |
| 124 to 126 | CO/N=C(/CNC(=O)c1cnc(OCC(F)(F)F)c(-c2ccc(Cl)c(Cl)c2)c1)C(F)(F)F |
| 197 to 199 | O=C1CCOc2ccc(/C=C/c3nc4cc(F)ccc4s3)cc21 |
| 108 to 111 | O=C(Nc1ccc(Oc2ccc(C(O)CCC(=O)N3CCOCC3)cc2)c(F)c1)c1ccc(Cl)c(Cl)c1 (centres undefined) |
| 175 to 178 | Cc1cccc(C)c1C(=O)Oc1cc([N+](=O)[O-])cc([N+](=O)[O-])c1OC(=O)c1c(C)cccc1C |
| 100 to 103 | CC(C)CC(NC(=O)C(Cc1ccc(OCc2ccccc2)cc1)NC(=O)OC(C)(C)C)C(=O)OCc1ccccc1 (centres undefined) (Boc-Tyr(Bn)-Leu-OBn; configuration not given here) |
| 232 to 233 | Cc1cc(-c2nc3cccnn3c2-c2ccnc(NC(=O)NC(C)C)c2)ccc1F |
| 91 to 93 | C=CCn1cc(C(O)(c2ccc3c(cnn3-c3ccc(F)cc3)c2)C(F)(F)F)c2ccn(C)c(=O)c21 (centres undefined) |
| 133 to 135 | COc1ccc(CCNC(=O)CNc2cccc(C(N)=O)c2)cc1OC |
| 187 to 189 | CC(=O)SCC(Cc1ccccc1)C(=O)Nc1ccc(C)c(C(=O)O)c1C (centres undefined) |
| 277 to 278 | COc1cc(C(=O)NS(C)(=O)=O)cc(OC)c1-c1ccc(C[C@H](NC(=O)c2c(Cl)cccc2Cl)C(=O)O)cc1 |
| 223 to 229 | Cc1cn(-c2cc(NC(=O)n3ccc4cc(Oc5cc(CC(N)=O)ncn5)ccc43)cc(C(F)(F)F)c2)cn1 |
| > 300 | CC(C)(C)OC(=O)CC[C@H](NC(=O)c1ccc(C=Cc2cnc3nc(N)nc(N)c3c2)cc1)C(=O)OC(C)(C)C |
| 180 to 181 | Cc1ccc(C(=O)OCCO)cc1-n1c(C)cc(OCc2ccc(F)cc2CNC(=O)Nc2cc(C(C)(C)C)nn2-c2cccc(OCCO)c2)c(Cl)c1=O |

The remaining lines, values behind:

| SMILES | melting point [°C] |
| --- | --- |
| COc1ccccc1[C@H](C)C(=O)N1C[C@@H]2[C@H](C1)C(c1ccccc1)(c1ccccc1)C[C@H](O)[C@@]2(O)c1ccccc1OC | 178 to 180 |
| C[Si](C)(C)c1cc(Cl)sc1C(=O)NCCOS(C)(=O)=O | 82 to 86 |
| CC(=O)c1c(N=Cc2ccccc2)c(-c2ccccc2)n(Cc2ccc(Cl)cc2)c1C | 136 to 137 |
| Cc1ccn2c(=O)c(C(=O)NC3CCCC3)cnc2c1 | 220 to 222 |
| COC(F)(F)C(F)(F)C(N)=O | 78 to 80 |
| Cc1ccc(-c2nc(C)c3c(=O)[nH]ncn23)cc1 | 251 to 253 |
| CS(=O)(=O)N1C[C@@H](P(=O)(c2ccccc2)c2ccccc2)C[C@H]1CO | 138 to 139 |
| O=C(O)CCCCCCCn1c(-c2ccccc2)nc(-c2ccccc2)c1-c1ccccc1 | 162 |
| Cc1ccc(-c2n[nH]cc2-c2ccnc(Cl)n2)cc1 | 194 to 197 |
| Cc1ccc(C(=O)Nc2ccccc2N2CCN(Cc3ccc[nH]3)CC2)c(-c2ccc(C(F)(F)F)cc2)c1 | 196 to 198 |
| BrCCC1c2ccccc2-c2ccccc21 | 48 to 49 |
| COc1ccc(-c2cc3cc(F)c(F)cc3[nH]2)cc1NS(C)(=O)=O | 254 to 256 |
| FC(F)(F)c1cc(-c2ccccc2)nc(N2CCNCC2)n1 | 130 |
| COc1cc(O)c(C(=O)CC(=O)C(C)(C)C#N)c(OC)c1 | 112 to 113 |
| O=c1[nH]ncc2c(O)cccc12 | 351 to 355 |
| CC(=O)C(C(C)=O)[C@@H]1NC(=O)[C@@H]1C(C)(C)O | 109 to 110 |
| COc1cc2c(c3c1c(=O)c1cc4ccccc4cc1n3C)C=CC(C)(C)O2 | 188 |
| CN(C)CNS(=O)(=O)c1ccc(-c2cnn(Cc3ccc(F)cc3F)c(=O)c2-c2ccc(F)cc2)cc1 | 193 to 195 |
| C#CCN1C(=O)COc2cc(F)c(N(C(C)=O)C(=O)C3=C(C(=O)OC)CCCC3)cc21 | 153 to 154 |
| CCCCN(C)C(N)=C(C#N)C(N)=S | 163 to 165 |
| CCOC(=O)c1cn(-c2cccnc2)nc1Br | 94 to 95 |
| CCCCCCSCCSc1nc2nc(C)cc(O)n2n1 | 126 |
| O=C(NC(=O)c1ccccn1)NC1CN2CCC1CC2 (centres undefined) | 202 to 203 |
| CCC1(CO)COC(C(C)(C)Oc2ccc(Cl)cc2)=N1 (centres undefined) | 94 to 95 |
| C#CCC(C(=CCl)c1cccnc1)c1ccc(Cl)cc1Cl (centres undefined) | 87 to 88 |

| SMILES | melting point [°C] |
| --- | --- |
| C/C(=C(\C#N)C(=S)/N=C/N(C)C)N1CCC(c2ccccc2)CC1 | 151 to 152 |
| Cc1nc(N)sc1-c1ccnc(Nc2ccc3c(c2)OCO3)n1 | 211 to 213 |
| O=C(CBr)c1cccc(Nc2ccc3ccccc3n2)c1 | 151 to 152 |
| COc1ccc(S(=O)(=O)c2sc(S(N)(=O)=O)cc2C)cc1 | 140 to 143 |
| CSc1nc(=O)c2cccc3c2n1-c1cc(C(F)(F)F)ccc1S3 | 229 to 231 |
| O=C(O)c1cccc(-c2cccc3c2CN(Cc2cccc(C(F)(F)F)c2)C3=O)c1 | 190 to 191 |
| N=c1[nH]c2ccc(Cl)cc2c2nc(C3CCCO3)nn12 (centres undefined) | 203 to 206 |
| CCc1c(C(=O)C(N)=O)c2c(OCC(=O)NOC(C)(C)C)cccc2n1Cc1ccccc1 | 203 to 205 |
| CN(CCCNc1ncc(Cc2ccc(Br)cc2)c(=O)[nH]1)c1ccccn1 | 178 to 179 |
| COc1ccc2c(c1O)C13CCN(C)C(C2)C1C=C(C)C(=O)C3 (centres undefined) | 183 to 185 |
| c1ccc2c(c1)C[C@H]1CSC(=Nc3csc4cnccc34)N1C2 | 180 |
| CCCCCCCCCCC/C=C\c1c[nH]c(C(=O)O)c1 | 157 to 158 |
| C=CC(C)(O)C#Cc1ncn2c1CN(C)C(=O)c1c(Cl)cccc1-2 (centres undefined) | 185 to 187 |
| CCCc1cccc(-c2nc(C)cc(Cl)n2)n1 | 77.1 |
| Clc1ccc(Nc2nnc(Cc3ccncc3)c3cccnc23)cc1 | 196 to 197 |
| O=C(Nc1ccccc1)C1=NOCCS1 | 109 to 110 |
| CC12CC3OC3CC1CCC1C2CCC2(C)C(O)C(N3CCC4(CC3)OCCO4)CC12 (centres undefined) | 186 to 188 |
| Fc1ccc(-c2nc(-c3ccc(CN4CCOCC4)cc3)[nH]c2-c2ccncc2)cc1 | 242 to 243 |
| CCCOc1ccccc1-c1nc2c(CCCc3ccccc3)cccc2c(=O)[nH]1 | 89 |
| COc1ccc(C2CNC(=O)C2)cc1OCCN1CCN(c2ccccc2)CC1 (centres undefined) | 140 to 141 |
| O=c1ncc(I)cn1COc1ccc(Cl)cc1 | 216 |
| [N-]=[N+]=NCc1ccc(C(=O)O)c(Cl)c1 | 87 to 88 |
| CC(C)(C#N)CN1C(=O)C2(OCCCO2)c2cc(Cl)ccc21 | 114 to 116 |
| Cc1nc2c3c(c(C(=O)NC4CC4)cc2n1C)CCC1(Cc2ccccc2C1)N3 | 247 to 248 |
| CC(=O)n1ccc(=O)c(O)c1C | 152 to 160 |

Source: a melting point compilation (Tetko et al.; mined from patent text by program, amines drawn as free bases though some values may be those of a salt)
